{"source": "patent US11304949B2", "about": "“Treatment of hidradenitis suppurativa using JAK inhibitors” (Incyte Corporation, priority 2018, dated 2022)", "key": {"[1]": {"molecular_target": "human JAK1 (a.a. 837-1142) (Homo sapiens, UniProt P23458)", "assay": "In vitro JAK kinase assay (HTRF), JAK1", "type": "biochemical", "settings": "1 mM ATP"}, "[2]": {"system": "human JAK1 (a.a. 837-1142)", "assay": "In vitro JAK kinase assay (HTRF), JAK1", "type": "biochemical", "settings": "IC50 ratio at 1 mM ATP"}, "[3]": {"system": "Transformed human keratinocyte (HaCaT) cells stimulated with TNFα and IFNγ", "assay": "JAK inhibitors in TNFα/IFNγ stimulated keratinocytes, gene expression (QuantiGene Plex)", "settings": "24 hours, normalized to HPRT1, mean ± standard error"}, "[4]": {"system": "Transformed human keratinocyte (HaCaT) cells stimulated with TNFα and IFNγ", "assay": "JAK inhibitors in TNFα/IFNγ stimulated keratinocytes, inflammatory mediators in media (ProCarta Multiplex Immunoassay)", "settings": "mean ± 1 standard error"}, "[5]": {"settings": "TNFα (25 ng/mL) and IFNγ (25 ng/mL), drug 25 nM"}, "[6]": {"settings": "TNFα (25 ng/mL) and IFNγ (25 ng/mL), drug 50 nM"}, "[7]": {"settings": "TNFα (25 ng/mL) and IFNγ (25 ng/mL), drug 100 nM"}, "[8]": {"settings": "TNFα (25 ng/mL) and IFNγ (25 ng/mL), drug 200 nM"}, "[9]": {"settings": "TNFα (25 ng/mL) and IFNγ (25 ng/mL) stimulation, drug 25 nM"}, "[10]": {"settings": "TNFα (25 ng/mL) and IFNγ (25 ng/mL) stimulation, drug 50 nM"}, "[11]": {"settings": "TNFα (25 ng/mL) and IFNγ (25 ng/mL) stimulation, drug 100 nM"}, "[12]": {"settings": "TNFα (25 ng/mL) and IFNγ (25 ng/mL) stimulation, drug 200 nM"}}, "data": [{"smiles": "N#CCC1(n2cc(-c3ncnc4[nH]ccc34)cn2)CN(C2CCN(C(=O)c3ccnc(C(F)(F)F)c3F)CC2)C1", "note": "[Compound 1, {1-{1-[3-Fluoro-2-(trifluoromethyl)isonicotinoyl]piperidin-4-yl}-3-[4-(7H-pyrrolo[2,3-d]pyrimidin-4-yl)-1H-pyrazol-1-yl]azetidin-3-yl}acetonitrile]", "values": [{"measurement": "IC50", "setting": "[1]", "result": "< 0.01", "unit": "µM"}, {"measurement": "JAK2/JAK1", "setting": "[2]", "result": ">10"}, {"measurement": "IL-1α MFI", "setting": "[3]; [5]", "result": "1288.02 ± 20"}, {"measurement": "IL-6 MFI", "setting": "[3]; [5]", "result": "130.24 ± 3.84"}, {"measurement": "JAK1 MFI", "setting": "[3]; [5]", "result": "216.23 ± 6.41"}, {"measurement": "JAK2 MFI", "setting": "[3]; [5]", "result": "109.39 ± 2.8"}, {"measurement": "JAK3 MFI", "setting": "[3]; [5]", "result": "0.84 ± 0.12"}, {"measurement": "STAT1 MFI", "setting": "[3]; [5]", "result": "2868.69 ± 202.69"}, {"measurement": "STAT3 MFI", "setting": "[3]; [5]", "result": "1466.73 ± 66.75"}, {"measurement": "STAT4 MFI", "setting": "[3]; [5]", "result": "6.00 ± 0.46"}, {"measurement": "STAT5A MFI", "setting": "[3]; [5]", "result": "23.69 ± 1.63"}, {"measurement": "STAT6 MFI", "setting": "[3]; [5]", "result": "1004.82 ± 23.76"}, {"measurement": "TYK2 MFI", "setting": "[3]; [5]", "result": "292.92 ± 7.99"}, {"measurement": "IL-1α MFI", "setting": "[3]; [6]", "result": "1258.76 ± 23.63"}, {"measurement": "IL-6 MFI", "setting": "[3]; [6]", "result": "122.69 ± 4.36"}, {"measurement": "JAK1 MFI", "setting": "[3]; [6]", "result": "210.42 ± 10.89"}, {"measurement": "JAK2 MFI", "setting": "[3]; [6]", "result": "101 ± 2.26"}, {"measurement": "JAK3 MFI", "setting": "[3]; [6]", "result": "0.83 ± 0.15"}, {"measurement": "STAT1 MFI", "setting": "[3]; [6]", "result": "2862.58 ± 163.98"}, {"measurement": "STAT3 MFI", "setting": "[3]; [6]", "result": "1437.28 ± 60.69"}, {"measurement": "STAT4 MFI", "setting": "[3]; [6]", "result": "6.22 ± 0.42"}, {"measurement": "STAT5A MFI", "setting": "[3]; [6]", "result": "22.32 ± 2.16"}, {"measurement": "STAT6 MFI", "setting": "[3]; [6]", "result": "990.05 ± 21.06"}, {"measurement": "TYK2 MFI", "setting": "[3]; [6]", "result": "287.31 ± 11.08"}, {"measurement": "IL-1α MFI", "setting": "[3]; [7]", "result": "1162.35 ± 23.34"}, {"measurement": "IL-6 MFI", "setting": "[3]; [7]", "result": "111.07 ± 4.74"}, {"measurement": "JAK1 MFI", "setting": "[3]; [7]", "result": "205.03 ± 11.49"}, {"measurement": "JAK2 MFI", "setting": "[3]; [7]", "result": "94.5 ± 2.65"}, {"measurement": "JAK3 MFI", "setting": "[3]; [7]", "result": "0.92 ± 0.13"}, {"measurement": "STAT1 MFI", "setting": "[3]; [7]", "result": "2790.32 ± 176.4"}, {"measurement": "STAT3 MFI", "setting": "[3]; [7]", "result": "1373.34 ± 55.51"}, {"measurement": "STAT4 MFI", "setting": "[3]; [7]", "result": "6.21 ± 0.48"}, {"measurement": "STAT5A MFI", "setting": "[3]; [7]", "result": "20.87 ± 2.1"}, {"measurement": "STAT6 MFI", "setting": "[3]; [7]", "result": "987.64 ± 15.75"}, {"measurement": "TYK2 MFI", "setting": "[3]; [7]", "result": "284.15 ± 9.62"}, {"measurement": "IL-1α MFI", "setting": "[3]; [8]", "result": "1126.94 ± 26.22"}, {"measurement": "IL-6 MFI", "setting": "[3]; [8]", "result": "93.03 ± 3.25"}, {"measurement": "JAK1 MFI", "setting": "[3]; [8]", "result": "195.97 ± 10.45"}, {"measurement": "JAK2 MFI", "setting": "[3]; [8]", "result": "89.16 ± 3.43"}, {"measurement": "JAK3 MFI", "setting": "[3]; [8]", "result": "0.79 ± 0.15"}, {"measurement": "STAT1 MFI", "setting": "[3]; [8]", "result": "2857.2 ± 174.57"}, {"measurement": "STAT3 MFI", "setting": "[3]; [8]", "result": "1400.77 ± 58.44"}, {"measurement": "STAT4 MFI", "setting": "[3]; [8]", "result": "6.27 ± 0.56"}, {"measurement": "STAT5A MFI", "setting": "[3]; [8]", "result": "19.2 ± 1.94"}, {"measurement": "STAT6 MFI", "setting": "[3]; [8]", "result": "985.17 ± 29.31"}, {"measurement": "TYK2 MFI", "setting": "[3]; [8]", "result": "277.52 ± 8.67"}, {"measurement": "IL-1α MFI", "setting": "[3]; no stimulation, drug 200 nM", "result": "85.16 ± 6.50"}, {"measurement": "IL-6 MFI", "setting": "[3]; no stimulation, drug 200 nM", "result": "4.97 ± 0.36"}, {"measurement": "JAK1 MFI", "setting": "[3]; no stimulation, drug 200 nM", "result": "171.53 ± 9.49"}, {"measurement": "JAK2 MFI", "setting": "[3]; no stimulation, drug 200 nM", "result": "25.21 ± 1.12"}, {"measurement": "JAK3 MFI", "setting": "[3]; no stimulation, drug 200 nM", "result": "0.63 ± 0.10"}, {"measurement": "STAT1 MFI", "setting": "[3]; no stimulation, drug 200 nM", "result": "535.07 ± 22.13"}, {"measurement": "STAT3 MFI", "setting": "[3]; no stimulation, drug 200 nM", "result": "732.19 ± 23.03"}, {"measurement": "STAT4 MFI", "setting": "[3]; no stimulation, drug 200 nM", "result": "4.01 ± 0.45"}, {"measurement": "STAT5A MFI", "setting": "[3]; no stimulation, drug 200 nM", "result": "1.44 ± 0.41"}, {"measurement": "STAT6 MFI", "setting": "[3]; no stimulation, drug 200 nM", "result": "740.11 ± 34.98"}, {"measurement": "TYK2 MFI", "setting": "[3]; no stimulation, drug 200 nM", "result": "217.28 ± 10.09"}, {"measurement": "IL-1α concentration in media", "setting": "[4]; [9]", "result": "7.34 ± 0.31", "unit": "pg/mL"}, {"measurement": "IL-6 concentration in media", "setting": "[4]; [9]", "result": "749.64 ± 32.94", "unit": "pg/mL"}, {"measurement": "IP-10/CXCL10 concentration in media", "setting": "[4]; [9]", "result": "4068.98 ± 507.12", "unit": "pg/mL"}, {"measurement": "MIP1α concentration in media", "setting": "[4]; [9]", "result": "103.81 ± 3.29", "unit": "pg/mL"}, {"measurement": "RANTES concentration in media", "setting": "[4]; [9]", "result": "203.77 ± 12.55", "unit": "pg/mL"}, {"measurement": "IL-1α concentration in media", "setting": "[4]; [10]", "result": "7.06 ± 0.37", "unit": "pg/mL"}, {"measurement": "IL-6 concentration in media", "setting": "[4]; [10]", "result": "674.21 ± 27.15", "unit": "pg/mL"}, {"measurement": "IP-10/CXCL10 concentration in media", "setting": "[4]; [10]", "result": "3872.74 ± 295.01", "unit": "pg/mL"}, {"measurement": "MIP1α concentration in media", "setting": "[4]; [10]", "result": "100.64 ± 4.66", "unit": "pg/mL"}, {"measurement": "RANTES concentration in media", "setting": "[4]; [10]", "result": "198.35 ± 15.1", "unit": "pg/mL"}, {"measurement": "IL-1α concentration in media", "setting": "[4]; [11]", "result": "7 ± 0.41", "unit": "pg/mL"}, {"measurement": "IL-6 concentration in media", "setting": "[4]; [11]", "result": "643.8 ± 27.14", "unit": "pg/mL"}, {"measurement": "IP-10/CXCL10 concentration in media", "setting": "[4]; [11]", "result": "4050.7 ± 471.31", "unit": "pg/mL"}, {"measurement": "MIP1α concentration in media", "setting": "[4]; [11]", "result": "91.52 ± 5.05", "unit": "pg/mL"}, {"measurement": "RANTES concentration in media", "setting": "[4]; [11]", "result": "194.21 ± 12.67", "unit": "pg/mL"}, {"measurement": "IL-1α concentration in media", "setting": "[4]; [12]", "result": "6.16 ± 0.35", "unit": "pg/mL"}, {"measurement": "IL-6 concentration in media", "setting": "[4]; [12]", "result": "568.73 ± 24.74", "unit": "pg/mL"}, {"measurement": "IP-10/CXCL10 concentration in media", "setting": "[4]; [12]", "result": "4071.78 ± 411.22", "unit": "pg/mL"}, {"measurement": "MIP1α concentration in media", "setting": "[4]; [12]", "result": "83.1 ± 2.77", "unit": "pg/mL"}, {"measurement": "RANTES concentration in media", "setting": "[4]; [12]", "result": "183.18 ± 13.92", "unit": "pg/mL"}, {"measurement": "IL-1α concentration in media", "setting": "[4]; no stimulation, drug 200 nM", "result": "0.29 ± 0.03", "unit": "pg/mL"}, {"measurement": "IL-6 concentration in media", "setting": "[4]; no stimulation, drug 200 nM", "result": "28.49 ± 2.89", "unit": "pg/mL"}, {"measurement": "IP-10/CXCL10 concentration in media", "setting": "[4]; no stimulation, drug 200 nM", "result": "19.83 ± 0.40", "unit": "pg/mL"}, {"measurement": "MIP1α concentration in media", "setting": "[4]; no stimulation, drug 200 nM", "result": "2.75 ± 0.26", "unit": "pg/mL"}, {"measurement": "RANTES concentration in media", "setting": "[4]; no stimulation, drug 200 nM", "result": "8.42 ± 0.51", "unit": "pg/mL"}]}]}
